From ChEMBL document CHEMBL4823295, “Design, synthesis and preliminary bioactivity evaluation of bitopic benzopyranomorpholine analogues as selective dopamine D3 receptor ligands as anti-drug addiction therapeutic agents” (Bioorg Med Chem Lett, 2021)
Active and inactive are the calls of the source. The calls are words filed in the database; no cut-off is given here.

Legend:
[1] = biological target: D(2) dopamine receptor (Homo sapiens, UniProt P14416); assay: Displacement of [3H]spiperone from human D2 receptor transfected in HEK293 cell membrane measured after 50 mins by competitive radioligand binding analysis; type: cell membranes
Sequence of D(2) dopamine receptor (P14416 whole entry): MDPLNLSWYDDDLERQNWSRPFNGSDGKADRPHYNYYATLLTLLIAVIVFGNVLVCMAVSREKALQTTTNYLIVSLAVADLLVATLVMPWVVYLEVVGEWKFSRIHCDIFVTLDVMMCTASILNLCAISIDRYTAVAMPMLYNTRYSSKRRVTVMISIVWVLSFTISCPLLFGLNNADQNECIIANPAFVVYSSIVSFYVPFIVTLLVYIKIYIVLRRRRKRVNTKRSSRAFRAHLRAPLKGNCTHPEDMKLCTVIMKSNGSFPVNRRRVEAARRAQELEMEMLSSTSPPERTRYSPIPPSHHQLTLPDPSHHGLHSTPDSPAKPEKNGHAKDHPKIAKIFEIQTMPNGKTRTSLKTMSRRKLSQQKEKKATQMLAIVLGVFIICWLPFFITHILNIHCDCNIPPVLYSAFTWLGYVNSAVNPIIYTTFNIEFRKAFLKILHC

[2] = species on record: Homo sapiens; assay: Selectivity ratio of Ki for human D2 receptor transfected in HEK293 cell membrane to Ki for human D3 receptor transfected in HEK293 cell membrane; type: cell-based
[3] = biological target: D(3) dopamine receptor (Homo sapiens, UniProt P35462); assay: Displacement of [3H]spiperone from human D3 receptor transfected in HEK293 cell membrane measured after 50 mins by competitive radioligand binding analysis; type: cell membranes
Sequence of D(3) dopamine receptor (P35462 whole entry): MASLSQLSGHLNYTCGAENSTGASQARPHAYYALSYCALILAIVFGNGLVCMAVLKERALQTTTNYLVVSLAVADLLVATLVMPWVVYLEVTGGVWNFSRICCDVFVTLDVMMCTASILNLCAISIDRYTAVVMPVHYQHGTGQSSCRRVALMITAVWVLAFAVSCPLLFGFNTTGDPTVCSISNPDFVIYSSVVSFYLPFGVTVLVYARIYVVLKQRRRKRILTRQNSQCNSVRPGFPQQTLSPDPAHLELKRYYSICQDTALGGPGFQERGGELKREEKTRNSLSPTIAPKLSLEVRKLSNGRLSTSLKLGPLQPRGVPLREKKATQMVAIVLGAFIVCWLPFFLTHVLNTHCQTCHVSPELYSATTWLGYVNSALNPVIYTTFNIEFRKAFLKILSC

[4] = tested on: Mus musculus; assay: Anti-addiction activity in naloxone-induced withdrawal symptoms in morphine-dependent mouse model assessed as inhibition of naloxone-induced body weight loss at 50 mg/kg, ip administered 60 mins prior to naloxone injection and measured after 2 hrs of naloxone injection; type: functional, organism-based; conditions: time 3.0 hrs
[5] = tested on: Mus musculus; assay: Anti-addiction activity in naloxone-induced withdrawal symptoms in morphine-dependent mouse model assessed as inhibition of naloxone-induced jumping response at 50 mg/kg, ip administered 60 mins prior to naloxone injection and measured for 30 mins after naloxone injection; type: functional, organism-based; conditions: time 90.0 min
[6] = tested on: Mus musculus; assay: Anti-addiction activity in naloxone-induced withdrawal symptoms in morphine-dependent mouse model assessed as reduction in diarrhea frequency at 50 mg/kg, ip administered 60 mins prior to naloxone injection and measured for 30 mins after naloxone injection; type: functional, organism-based; conditions: time 90.0 min
[7] = tested on: Mus musculus; assay: Anti-addiction activity in naloxone-induced withdrawal symptoms in morphine-dependent mouse model assessed as reduction in amount of diarrhea at 50 mg/kg, ip administered 60 mins prior to naloxone injection and measured for 30 mins after naloxone injection; type: functional, organism-based; conditions: time 90.0 min
[8] = Toxicity in naloxone-induced withdrawal symptoms in morphine-dependent mouse model assessed as convulsions at 50 mg/kg, ip administered 60 mins prior to naloxone injection; type: organism-based; conditions: in vivo, 1 h
[9] = Toxicity in naloxone-induced withdrawal symptoms in morphine-dependent mouse model assessed as inability to bounce at 50 mg/kg, ip administered 60 mins prior to naloxone injection; type: organism-based; conditions: in vivo, 1 h
[10] = Toxicity in naloxone-induced withdrawal symptoms in morphine-dependent mouse model assessed as slow crawling at 50 mg/kg, ip administered 60 mins prior to naloxone injection; type: organism-based; conditions: in vivo, 1 h

Compound	Ki [1] [nM]	Ratio Ki [2]	Ki [3] [nM]	Activity [4]	Activity [5]	Activity [6]	Activity [7]	Activity [8]	Activity [9]	Activity [10]
CCCN1CCO[C@@H]2c3cc(O)ccc3OC[C@H]21	43	23	1.82							
O=C(NCCCCN1CCO[C@@H]2c3ccccc3OC[C@H]21)c1ccc(Br)cc1 (racemic)	897	66	13.5	inactive						
O=C(NCCCCN1CCO[C@@H]2c3ccccc3OC[C@H]21)c1ccccc1 (racemic)	776	11	72	Active	Active					
COc1ccc2c(c1)[C@H]1OCCN(CCCCNC(=O)c3ccccc3)[C@@H]1CO2 (racemic)	568	41	13.8	Active		Active				
COc1ccccc1C(=O)NCCCCN1CCO[C@@H]2c3ccccc3OC[C@H]21 (racemic)	863	67	12.9							
COc1ccc2c(c1)[C@H]1OCCN(CCCCNC(=O)c3ccc(Br)cc3)[C@@H]1CO2 (racemic)	958	111	8.6	Active						
COc1ccc2c(c1)[C@H]1OCCN(CCCCNC(=O)c3cccc(Cl)c3)[C@@H]1CO2 (racemic)	785	30	26.6	inactive	Active					
O=C(NCCCCN1CCO[C@@H]2c3ccccc3OC[C@H]21)c1ccc(-c2ccccc2)cc1 (racemic)	1020	23	43.8	Active	Active					
COc1ccc2c(c1)[C@H]1OCCN(CCCCNC(=O)c3cc4ccccc4[nH]3)[C@@H]1CO2 (racemic)	732	755	0.97	Active			Active			
O=C(NCCCCN1CCO[C@@H]2c3ccccc3OC[C@H]21)c1cccs1 (racemic)	417	23	18.5	Active		Active				
COc1ccc2c(c1)[C@H]1OCCN(CCCCNC(=O)c3cc(OC)c(OC)c(OC)c3)[C@@H]1CO2 (racemic)	962	782	1.23					Toxic	Toxic	Toxic
O=C(NCCCCN1CCO[C@@H]2c3ccccc3OC[C@@H]21)c1ccc(Cl)cc1 (racemic)			> 1000	Active		Active				
COc1ccc2c(c1)[C@H]1OCCN(CCCCNC(=O)C3CCCCC3)[C@@H]1CO2 (racemic)	688	21	33.6	Active	Active		Active			
COc1ccc(C(=O)NCCCCN2CCO[C@@H]3c4ccccc4OC[C@H]32)cc1 (racemic)	568	76	7.5	Active	Active	Active				
O=C(NCCCCN1CCO[C@@H]2c3ccccc3OC[C@H]21)c1cccc2ccccc12 (racemic)	563	36	15.8	Active	Active					
COc1ccc2c(c1)[C@H]1OCCN(CCCCNC(=O)c3cccnc3)[C@@H]1CO2 (racemic)	744	81	9.16					Toxic	Toxic	Toxic

Compound	Ki [1] [nM]	Ratio Ki [2]	Ki [3] [nM]	Activity [4]	Activity [5]	Activity [6]	Activity [7]	Activity [8]	Activity [9]	Activity [10]
COc1cc(C(=O)NCCCCN2CCO[C@@H]3c4ccccc4OC[C@H]32)cc(OC)c1OC (racemic)	708	104	6.8	inactive						
COc1ccc2c(c1)[C@H]1OCCN(CCCCNC(=O)c3ccc(-c4ccccc4)cc3)[C@@H]1CO2 (racemic)	1060	58	18.4	Active						
COc1ccc(C(=O)NCCCCN2CCO[C@@H]3c4cc(OC)ccc4OC[C@H]32)cc1 (racemic)	697	645	1.08	Active	Active		Active			
O=C(NCCCCN1CCO[C@@H]2c3ccccc3OC[C@@H]21)c1ccc(-c2ccccc2)cc1 (racemic)			> 1000	inactive						
COc1ccc2c(c1)[C@H]1OCCN(CCCCNC(=O)c3ccc([N+](=O)[O-])cc3)[C@@H]1CO2 (racemic)	589	42	13.9	Active	Active					
COc1ccc2c(c1)[C@H]1OCCN(CCCCNC(=O)c3ccc4ccccc4c3)[C@@H]1CO2 (racemic)	642	32	19.9	Active						
O=C(NCCCCN1CCO[C@@H]2c3ccccc3OC[C@H]21)c1ccc([N+](=O)[O-])cc1 (racemic)	962	28	33.9	Active	Active	Active				
O=C(NCCCCN1CCO[C@@H]2c3ccccc3OC[C@H]21)C1CCCCC1 (racemic)	728	11	63.8	Active	Active					
O=C(NCCCCN1CCO[C@@H]2c3ccccc3OC[C@H]21)c1cc2ccccc2[nH]1 (racemic)	785	75	10.5	Active	Active					
COc1ccc2c(c1)[C@H]1OCCN(CCCCNC(=O)c3ccco3)[C@@H]1CO2 (racemic)	923	177	5.2	inactive	Active					
O=C(NCCCCN1CCO[C@@H]2c3ccccc3OC[C@@H]21)c1cccs1 (racemic)			> 1000	inactive						
COc1ccc2c(c1)[C@H]1OCCN(CCCCNC(=O)c3cccc4ccccc34)[C@@H]1CO2 (racemic)	861	43	19.8	Active			Active			
O=C(NCCCCN1CCO[C@@H]2c3ccccc3OC[C@H]21)c1ccc2ccccc2c1 (racemic)	723	53	13.7	Active			Active			
O=C(NCCCCN1CCO[C@@H]2c3ccccc3OC[C@H]21)c1cccc(Cl)c1 (racemic)	663	28	23.6	Active		Active				
O=C(NCCCCN1CCO[C@@H]2c3ccccc3OC[C@H]21)c1ccc(Cl)cc1 (racemic)	473	27	17.8	Active			Active			
